Reference: patent US20170065667A1, “METHODS FOR SYNCHRONIZATION OF ESTROUS CYCLES AND OVULATION FOR FIXED TIME ARTIFICIAL INSEMINATION IN CATTLE” (Parnell Technologies Pty Ltd., priority 2014, published 2017)
Values joined by “and” are separate entries in the source; they are usually repeats but may differ in a detail not shown here. Identical values can stand only once.

Tested on: lactating Holstein cows
Test: Experiment 1: pregnancies per AI (P/AI) after one vs. two cloprostenol sodium injections in Double-Ovsynch, FTAI
Assay type: in vivo, cattle
Details: for P/AI: quartiles 2, 3 and 4 combined
Procedure: An experiment was conducted to determine the effectiveness of the exogenous administration of hormones for synchronizing the estrous cycles of lactating dairy cattle and resulting pregnancy rates subsequent to FTAI. A total of 373 lactating Holstein cows (172 primiparous, 201 multiparous) were synchronized with a Double-Ovsynch program comprising a first or presynchronization Ovsynch phase followed by a second Ovsynch phase. All animals were synchronized using a GnRH composition (about 100 mcg of gonadorelin acetate per mL, GONAbreed®, Parnell Technologies Pty Ltd, Alexandria, Australia) and a PGF2α analog composition (about 250 mcg of cloprostenol sodium per mL, estroPLAN®, Parnell Technologies Pty Ltd, Alexandria, Australia). The first Ovsynch phase began at about 51 to about 57 days in milk where the cows received a first 1 mL intramuscular injection of a gonadorelin acetate composition. At about 58 to about 64 days in milk, the cows received a first 2 mL intramuscular injection of a cloprostenol sodium composition. At about 61 to about 67 days in milk, the cows received a second 1 mL intramuscular injection of a gonadorelin acetate composition concluding the first Ovsynch phase. The animals were then synchronized with a second Ovsynch phase comprising an Ovsynch-56 protocol beginning at about 68 to about 74 days in milk where the cows received a third 1 mL intramuscular injection of gonadorelin acetate composition. At about 75 to about 81 days in milk, the animals received a second 2 mL intramuscular injection of a cloprostenol sodium composition. At about 77 to about 83 days in milk (about 56 hours after the second injection of a cloprostenol sodium composition), the animals received a fourth 1 mL intramuscular injection of a gonadorelin acetate composition. And at about 78 to about 84 days in milk (about 16 hours after the fourth injection of the gonadorelin acetate composition), the animals receive AI, concluding the second Ovsynch phase. […] The experimental protocol is shown in the diagram of FIG. 2. Statistical analyses were performed with SAS (SAS Institute, 2006). Variables with a binomial distribution, such as P/AI and percentage of animals with CL regression, were analyzed by logistic regression using the LOGISTIC procedure. One-tailed comparisons were utilized throughout the study for comparison of the effect of an additional cloprostenol sodium injection on CL regression and animals pregnant to the FTAI. Continuous variables were analyzed using ANOVA with logistic regression utilized to compare the relationship between circulating P4 and the binomial traits. Animals with ≦2.0 ng/mL P4 on day of PGF were removed from the analysis (n=29; 13 primiparous, 16 multiparous) due to lack of synchronization to the double Ovsynch protocol. Therefore, all analyses were done with a total of 344 lactating dairy cows (n=159 primiparous; n=185 multiparous). Statistical differences were considered significant for P≦0.05 and as a tendency for P≦0.15.

With `O=C(O)CCC/C=C\CC1C(O)CC(O)C1/C=C/C(O)COc1cccc(Cl)c1` (stereo not shown) [cloprostenol sodium] the “Effect of PGF, relative difference in P/AI (two minus one, divided by one)” value (multiparous) was 18.9% (P = 0.15), the “Pregnant/AI, % (n/n)” value (one injection, Quartile 1, [P4] 2.0-4.8 at first injection) was 31.0% and 31.0 (13/42) % and the “Pregnant/AI, % (n/n)” value (one injection, Quartile 2, [P4] 4.9-6.7) was 40.0% and 40.0 (18/45) %. For the same molecule, the “Pregnant/AI, % (n/n)” value (one injection, Quartile 3, [P4] 6.8-8.7) was 47.7% and 47.7 (21/44) %, the “Pregnant/AI, % (n/n)” value (one injection, Quartile 4, [P4] 8.8-12) was 44.4% and 44.4 (20/45) % and the “percentage of cows pregnant/AI (P/AI)” value (one injection, multiparous) was 37.5% (36/96). The “percentage of cows pregnant/AI (P/AI)” value (one injection, overall) was 40.1% (72/176), the “percentage of cows pregnant/AI (P/AI)” value (one injection, primiparous) was 45.0% (36/80) and the P/AI (one injection) was 44.0%. The “Effect of PGF, relative difference in P/AI (two minus one, divided by one)” value (overall) was 15.2% (P = 0.13), the “Effect of PGF, relative difference in P/AI (two minus one, divided by one)” value (primiparous) was 7.11% (P = 0.35) and the “Pregnant/AI, % (n/n)” value (two injections, Quartile 1, [P4] 2.0-5.4 at first injection) was 31.7% and 31.7 (13/41) %. For the same molecule, the “Pregnant/AI, % (n/n)” value (two injections, Quartile 2, [P4] 5.5-7.0) was 46.7% and 46.7 (21/45) %, the “Pregnant/AI, % (n/n)” value (two injections, Quartile 3, [P4] 7.1-8.6) was 55.8% and 55.8 (24/43) % and the “Pregnant/AI, % (n/n)” value (two injections, Quartile 4, [P4] 8.7-12) was 56.4% and 56.4 (22/39) %. The “percentage of cows pregnant/AI (P/AI)” value (two injections, multiparous) was 44.6% (41/89), the “percentage of cows pregnant/AI (P/AI)” value (two injections, overall) was 46.2% (80/168) and the “percentage of cows pregnant/AI (P/AI)” value (two injections, primiparous) was 48.2% (39/79). The P/AI (two injections) was 52.8%.
